Consider 1 compound from patent publication US11571480B2, “Multi-ligand drug conjugates and uses thereof” (priority 2015, dated 2023).

Numbered stars: 1 amine (or outer) side, 2 acyl side, 3 side chain; on linkers, the order of the positions; unused ones are H or OH. Bridge positions count the residues as written; N and C are the ends. Square brackets hold non-standard residues; d marks the D form. Peptide text beside a SMILES is read from it. I, II: the chains in the order shown. * marks the point of attachment. Hexanoyl(6-succinimido-3yl) = O=C1CC([*:1])C(=O)N1CCCCCC(=O)[*:2]; Pteroyl = Nc1nc2ncc(CNc3ccc(C(=O)*)cc3)nc2c(=O)[nH]1; Dolaproine = CO[C@@H]([C@@H]1CCCN1)[C@@H](C)C(=O)O; Dil = CC[C@H](C)[C@H](NC)[C@@H](CC(=O)O)OC; PABC = O=C(OCc1ccc(N[*:1])cc1)[*:2]; X1 = C[C@@H](N*)[C@@H](O)c1ccccc1; Cit = NC(=O)NCCC[C@H](N)C(=O)O; NMeV = CN[C@H](C(=O)O)C(C)C

Common to all, as to type: cell-based
Data set [1] concerns receptor positive cell lines. Put plainly: Cytotoxicity test of conjugate LDC10BR, comparison over cell lines. On the procedure: (§1) Culture medium: RPMI 1640 Medium, no folic acid
(§2) 1) human nasopharyngeal cancer cell line KB, melanoma cell line A375, and human lung cancer cell H460 were incubated at 37° C., 5% CO2 in RPMI 1640 medium containing 10% fetal bovine serum, the cells were passaged every 2-3 days.
(§3) 2) human nasopharyngeal cancer cell line KB, melanoma cell line A375, and human lung cancer cell H460 were plated at 1×10^3 cells per well (96-well plate) and incubated for 8-12 h at 37° C., 5% CO2.
(§4) 3) Stock solutions of LDC conjugates or control were prepared in PBS solution. 100 μL/well of serially diluted LDC conjugates or control was added to the cells in the plate and incubated for 15-30 min at 37° C., 5% CO2. The culture medium in the wells was then removed by aspiration and the cells were incubated in fresh culture medium without conjugates (150 μL/well) for 2-3 days at 37° C., 5% CO2.
(§5) 4) CellTiter 96® Aqueous One Solution Cell Proliferation Assay (Promega) was added to each well to measure the amount of […] cells, and the plate was incubated in an incubator for 1 h at 37° C., 5% CO2.
(§6) 5) the plate was read at 490 nm on a microplate reader, and the cell survivals were compared for cells with or without the treatment of LDC conjugates. The LDC drug concentrations that are required for 50% cell death (IC50 values) were determined.

For another data set, the system named is melanoma cell line A375. Put plainly: Cytotoxicity test of conjugate LDC10BR. The note with it: A375, incubated 15-30 min, then 2-3 days. How it is done:
as §1, §2, §3, §4, §5, §6

Data set [2] concerns human lung cancer cell H460. Put plainly: Cytotoxicity test of conjugate LDC10BR. Particulars: H460, incubated 15-30 min, then 2-3 days. On the procedure:
as §1, §2, §3, §4, §5, §6

The subject of data set [3] is human nasopharyngeal cancer cell line KB. Put plainly: Cytotoxicity test of conjugate LDC10BR. The note with it: incubated 15-30 min, then 2-3 days. How it is done: as §1, §2, §3, §4, §5, §6

Regarding `CC[C@H](C)[C@@H]([C@@H](CC(=O)N1CCC[C@H]1[C@H](OC)[C@@H](C)C(=O)N[C@H](C)[C@@H](O)c1ccccc1)OC)N(C)C(=O)[C@@H](NC(=O)[C@H](C(C)C)N(C)C(=O)OCc1ccc(NC(=O)[C@H](CCCNC(N)=O)NC(=O)[C@@H](NC(=O)CCCCCN2C(=O)CC(SC[C@H](NC(=O)[C@H](CC(=O)O)NC(=O)CNC(=O)[C@H](CCCNC(=N)N)NC(=O)[C@H](CCC(=O)O)NC(=O)c3ccc(NCc4cnc5[nH]c(N)nc(=O)c5n4)cc3)C(=O)N[C@@H](CCCCN)C(=O)N[C@@H](CCC(=O)O)C(=O)N[C@@H](Cc3ccccc3)C(=O)N[C@@H](CC(C)C)C(=O)N[C@@H](Cc3c[nH]cn3)C(=O)N3CCC[C@H]3C(=O)N[C@@H](CO)C(=O)N[C@@H](CCCCN)C(=O)N[C@H](C(=O)N[C@@H](CC(=O)O)C(=O)N[C@@H](CC(C)C)C(=O)N3CCC[C@H]3C(=O)N[C@@H](CCCNC(=N)N)C(=O)O)C(C)C)C2=O)C(C)C)cc1)C(C)C` (stereo partly shown) [LDC10BR] (I: Pteroyl-ERGDCKEFLHPSKVDLPR-OH / II: V[Cit][PABC][NMeV]V[Dil][Dolaproine]-X1; linker I:5-II:N via Hexanoyl(6-succinimido-3yl)), the “cytotoxicity compared with bi-ligand conjugate LDC10B (in words)” value in data set [1] is listed as “comparable to the bi-ligand conjugate LDC10B”. Further, the IC50 (usually the concentration that inhibits the measured activity by half) was determined as 38.1 µM in the data set with melanoma cell line A375, 6.4 µM in data set [2] and 6.6 µM in data set [3].
